From ChEMBL document CHEMBL5316350, “Novel Pyrido[2',1':2,3]imidazo[4,5-c]quinoline Derivative Selectively Poisons Leishmania donovani Bisubunit Topoisomerase 1 to Inhibit the Antimony-Resistant Leishmania Infection in Vivo” (J Med Chem, 2023)
Active and inactive are the calls of the source. The calls are words filed in the database; no cut-off is given here.

Assays:
Leishmania donovani [1] = assay: Antileishmanial activity in Leishmania donovani Ag83 promastigotes assessed as Top1cc-induced DNA breakdown by measuring TUNEL positive cells by confocal microscopic analysis; assay type: functional, organism-based; conditions: time 6-12 hrs, TDE = time-dependent effect
Leishmania donovani [2] = assay: Induction of apoptosis in Leishmania donovani Ag83 promastigotes assessed as viable cells measured at 5 uM after 6 hrs by Annexin V-FITC/PI staining based flow cytometric analysis (reference value: 99.4%); assay type: functional
Leishmania donovani [3] = assay: Antileishmanial activity against Leishmania donovani Ag83 amastigotes infected in BALB/c mouse macrophage assessed as cell viability measured after 48 hrs infection by propidium iodide staining analysis relative to control; assay type: functional, organism-based; conditions: Ag83, 48 h
Leishmania donovani [4] = assay: Induction of cell cycle arrest in Leishmania donovani Ag83 promastigotes assessed as decrease in accumulation of cells in G2/M phase at 5 uM measured after 6 hrs by PI staining based flow cytometry (reference value: 15.1 %); assay type: functional; set-up: scale not given: the % may be the effect or the level left
Leishmania donovani [5] = assay: Induction of apoptosis in Leishmania donovani Ag83 promastigotes assessed as early apoptotic cells measured at 5 uM after 12 hrs by Annexin V-FITC/PI staining based flow cytometric analysis (reference value: 0.00%); assay type: functional
Leishmania donovani [6] = assay: Induction of cell cycle arrest in Leishmania donovani Ag83 promastigotes assessed as decrease in accumulation of cells in S phase at 5 uM measured after 6 hrs by PI staining based flow cytometry (reference value: 18.1%); assay type: functional; set-up: scale not given: the % may be the effect or the level left
Leishmania donovani [7] = assay: Induction of cell cycle arrest in Leishmania donovani Ag83 promastigotes assessed as decrease in accumulation of cells in G0/G1 phase at 5 uM measured after 24 hrs by PI staining based flow cytometry (reference value: 65.1%); assay type: functional; set-up: scale not given: the % may be the effect or the level left
Leishmania donovani [8] = assay: Antileishmanial activity against Leishmania donovani Ag83 promastigotes assessed as cell viability by MTT assay; assay type: functional, organism-based
Leishmania donovani [9] = assay: Induction of cell cycle arrest in Leishmania donovani Ag83 promastigotes assessed as decrease in accumulation of cells in G0/G1 phase at 5 uM measured after 12 hrs by PI staining based flow cytometry (reference value: 65.1%); assay type: functional; set-up: scale not given: the % may be the effect or the level left
[10] = biological target: T1, DNA topoisomerase 1 (Homo sapiens) (UniProt P11387); assay: Inhibition of human recombinant Top1 assessed as stabilization of clevage complex upto 100 uM measured after 30 mins
T1 sequence (whole entry): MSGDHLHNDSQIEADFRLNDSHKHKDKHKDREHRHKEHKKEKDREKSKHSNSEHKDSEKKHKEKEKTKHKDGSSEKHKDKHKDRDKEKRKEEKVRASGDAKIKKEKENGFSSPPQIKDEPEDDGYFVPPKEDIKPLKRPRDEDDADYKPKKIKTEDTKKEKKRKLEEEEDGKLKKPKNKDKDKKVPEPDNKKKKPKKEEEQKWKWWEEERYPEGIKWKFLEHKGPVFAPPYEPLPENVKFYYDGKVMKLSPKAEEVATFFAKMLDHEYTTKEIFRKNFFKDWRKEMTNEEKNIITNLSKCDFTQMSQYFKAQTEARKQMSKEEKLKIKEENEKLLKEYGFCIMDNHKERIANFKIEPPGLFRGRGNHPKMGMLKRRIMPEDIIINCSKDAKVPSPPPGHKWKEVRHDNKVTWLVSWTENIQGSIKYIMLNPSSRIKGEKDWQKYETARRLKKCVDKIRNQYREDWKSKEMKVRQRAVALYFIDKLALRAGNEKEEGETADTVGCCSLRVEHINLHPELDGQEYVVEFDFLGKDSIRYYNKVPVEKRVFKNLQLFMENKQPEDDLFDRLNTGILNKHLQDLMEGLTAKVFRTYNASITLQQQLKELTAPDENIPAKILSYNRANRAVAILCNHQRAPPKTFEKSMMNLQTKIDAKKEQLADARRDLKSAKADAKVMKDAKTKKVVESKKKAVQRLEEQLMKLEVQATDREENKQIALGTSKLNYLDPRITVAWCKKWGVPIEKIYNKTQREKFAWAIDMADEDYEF

Leishmania donovani [11] = assay: Induction of apoptosis in Leishmania donovani Ag83 promastigotes assessed as viable cells measured at 5 uM after 12 hrs by Annexin V-FITC/PI staining based flow cytometric analysis (reference value: 99.4%); assay type: functional
Leishmania donovani [12] = assay: Antileishmanial activity against Leishmania donovani Ag83 promastigotes infected in BALB/c mouse model of visceral leishmaniasis assessed as fold change in T-helper type 1 immunological evoke response in splenocytes by measuring increased IFN-gamma cytokine level treated after 3 weeks of infection at 10 mg/kg, ip twice a week for 3 weeks by RT-PCR analysis; assay type: functional
[13] = biological target: T2, DNA topoisomerase I (Leishmania donovani (strain BPK282A1)) (UniProt E9BRC0); assay: Inhibition of Leishmania donovani topoisomerase I assessed as DNA intercalation using pBluscript (SK+) DNA as substrate at 20 to 200 uM incubated for 15 mins ethidium bromide staining based UV analysis; conditions: dose 20-200 µM
T2 sequence (whole entry): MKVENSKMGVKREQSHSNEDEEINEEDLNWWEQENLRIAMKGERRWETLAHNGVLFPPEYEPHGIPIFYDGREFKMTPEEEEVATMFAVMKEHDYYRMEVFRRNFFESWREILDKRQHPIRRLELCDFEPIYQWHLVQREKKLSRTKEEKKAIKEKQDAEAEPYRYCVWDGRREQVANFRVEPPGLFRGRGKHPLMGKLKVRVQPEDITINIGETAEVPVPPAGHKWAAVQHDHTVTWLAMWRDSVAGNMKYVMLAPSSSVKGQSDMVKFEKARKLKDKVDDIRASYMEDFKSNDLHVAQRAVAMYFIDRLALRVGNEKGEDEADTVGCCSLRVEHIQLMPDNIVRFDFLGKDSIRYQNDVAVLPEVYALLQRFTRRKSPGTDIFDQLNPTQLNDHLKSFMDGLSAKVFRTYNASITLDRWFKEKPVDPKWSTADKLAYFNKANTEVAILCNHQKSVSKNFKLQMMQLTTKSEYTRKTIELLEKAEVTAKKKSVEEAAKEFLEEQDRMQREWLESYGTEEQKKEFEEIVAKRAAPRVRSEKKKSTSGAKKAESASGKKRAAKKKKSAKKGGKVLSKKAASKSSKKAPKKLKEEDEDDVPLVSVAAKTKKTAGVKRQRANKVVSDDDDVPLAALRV

Leishmania donovani [14] = assay: Induction of apoptosis in Leishmania donovani BHU575 promastigotes assessed as DNA break accumulation measured at 5 uM after 6 to 24 hrs by TUNEL staining based assay; assay type: functional, organism-based; conditions: time 6-24 hrs
[15] = biological target: T2, DNA topoisomerase I (Leishmania donovani (strain BPK282A1)); assay: Inhibition of Leishmania donovani recombinant Top1 preincubated with compound for 5 mins followed by plasmid DNA addition at 1 to 10 uM measured after 30 mins; conditions: dose 1-10 µM
[16] = Cytotoxicity against BALB/c mouse macrophage assessed as cell viability measured after 48 hrs infection by propidium iodide staining analysis relative to control; assay type: toxicity, cell-based; conditions: mouse macrophages
Leishmania donovani [17] = assay: Stabilization of Leishmania donovani promastigotes Top1-DNA complex assessed as formation of SDS-KCl precipitable complex incubated for 110 mins by anti-BrdU staining based spectrophotometric analysis
Leishmania donovani [18] = assay: Antileishmanial activity against antimony resistant Leishmania donovani BHU575 promastigotes infected in BALB/c mouse assessed as reduction of macrophage at 10 uM measured after 96 hrs infection by propidium iodide staining analysis relative to control; assay type: functional; set-up: scale not given: the % may be the effect or the level left
Leishmania donovani [19] = assay: Induction of apoptosis in Leishmania donovani Ag83 promastigotes assessed as viable cells measured at 5 uM after 24 hrs by Annexin V-FITC/PI staining based flow cytometric analysis (reference value: 99.4%); assay type: functional

Question: Which results are given for `COc1cc(-c2nc3ccccc3c3nc4ccccn4c23)cc(OC)c1OC`?
Answer: Activity (Leishmania donovani [1]): Tde; Activity (Leishmania donovani [2]): 5%; EC50 (Leishmania donovani [3]): 2500 nM; Activity (Leishmania donovani [4]): 27.7%; Activity (Leishmania donovani [5]): 11.4%; Activity (Leishmania donovani [6]): 13.6%; Activity (Leishmania donovani [7]): 31.5%; EC50 (Leishmania donovani [8]): 2310 nM; Activity (Leishmania donovani [9]): 40.7%; inhibition [10]: inactive; Activity (Leishmania donovani [11]): 2%; fold change (FC) (Leishmania donovani [12]): 5.5; inhibition [13]: inactive; Activity (Leishmania donovani [14]): Active; inhibition [15]: inactive; EC50 at 48 h [16]: 50200 nM; Activity (Leishmania donovani [17]): Active; Activity (Leishmania donovani [18]): 90%; Activity (Leishmania donovani [19]): 1.4%
